Assay results: patent US20150352107A1, “ALPHA7 NEURONAL NICOTINIC RECEPTOR LIGAND AND ANTIPSYCHOTIC COMPOSITIONS” (AbbVie Inc., priority 2005, published 2015)
Entries after “also recorded” stand apart in the source; their conditions may differ. Like-named read-outs stand apart in the source and are kept apart here.

Legend:
[1] = system: DBA/2J mice; assay: Prepulse inhibition (PPI) of startle in DBA/2 mice; assay type: in vivo, mouse; details: for dose at which efficacy was observed in DBA2 mouse PPI: i.p., antipsychotic alone, FIG. 1
Text: Dysfunctions of sensory gating and information processing have been putatively associated with clinical features such as perpetual aberrations, hallucinations and distraction and been considered as potential precursors of sensory overload, cognitive fragmentation and disorganization. Among the physiological measures, one approach has involved the startle reflex with the prepulse inhibition (PPI) paradigm. […] PPI refers to a reduction in the acoustic startle reflex to a loud noise when the loud noise is preceded by a weak auditory stimulus. At short lead intervals, this has the effect of markedly reducing or gating the amplitude of the startle response and increasing its latency. Disruption of PPI occurs with agonists of dopamine and serotonin, and with glutamate/N-methyl D aspartate (NMDA) receptor antagonists, or can be induced by genetic (e.g., DBA2 mouse strain) and experimental manipulations (e.g., rearing rats in isolation, neurotoxic lesions, or other methods). […] (Olivier B., et al., Psychopharmacology (2001) vol. 156:284-290; Ouagazzal A-M., Psychopharmacology (2001) vol. 156:273-283; Simosky J. K., Psychopharmacology (2003) vol. 165:386-396). To accomplish the study, the following materials and methods were used.
Male DBA/2J mice (Jackson Laboratories AX9 facility, Bar Harbor, Me., USA) at age 6-8 weeks old were used for all investigations.
Startle response and PPI were measured using startle chambers from Hamilton Kinder (Poway, Calif., USA). Each chamber contained a plexiglas rectangle with an adjustable ceiling housed in a ventilated, sound-attenuated cubicle. The ceiling was adjusted on an individual (animal by animal) basis to allow for adequate headroom but no rears or extensive locomotion. The chamber was placed over an anchor plate attached to a piezoelectric disk to transduce startle responses to a computer. A loudspeaker located in each chamber delivered the background noise (65 dB), and the acoustic stimuli. A constant white noise was maintained in the experimental room for the duration of the experiment by a white noise generator (Radioshack, USA). Each session was initiated with a 5-minute acclimation period followed by four successive 120 dB, 40 ms trials. These trials were not included in the main analysis, but are referred to as baseline responses. Animals were then presented with 5 different trial types: startle pulse (120 dB, 40), or prepulse stimulus of one of three sound levels (70, 75, or 80 dB) for 20 ms, followed 100 ms later by an acoustic startle (120 dB) for 40 ms. A total of 12 trials under each condition were delivered in a random sequence and all trials were separated by a variable inter-trial interval of 5-25 s. Finally, this sequence ended with the presentation of four 120 dB, 40 ms sound bursts (not included in the main analyses, but included in the baseline or habituation analyses). The animals were injected with the test compounds 30 minutes before the start of the trials. In the startle alone trials, the basic auditory startle, or startle response was measured, and in the prepulse plus startle trials, the levels of PPI was calculated as a percentage score for each acoustic prepulse trial type using (typically) the formula: […].
Data were first analyzed using a two-way repeated measures analysis of variance (ANOVA) with two independent factors. If there was a significant interaction of both factors, subsequent post hoc one-way ANOVAs were performed using each treatment combination as an independent group. All post hoc significance was determined using Fishers protected least significant difference test. (p<0.05 was regarded as significant).
Startle response and PPI were measured using startle chambers from Hamilton Kinder (Poway, Calif., USA). Each chamber contained a plexiglas rectangle with an adjustable ceiling housed in a ventilated, sound-attenuated cubicle. […]

[2] = cited from earlier work; for Optimal Dose and/or Minimally Effective Dose / EPS risk: dose of augmented risk: clinical use
[3] = system: Sprague Dawley rats; assay: Catalepsy bar test in rats (EPS predictor)
Procedure: One of the adverse effects of antipsychotic medications is extrapyramidal movement disorder syndrome attributed to blockade of the dopamine D2 receptors. Extrapyramidal movement disorder can be predicted by the cataleptic response elicited by an antipsychotic in a rodent. To assess whether Compound 1 alone evoked cataleptic responses or interfered with the cataleptic effect of the antipsychotic, the following set of studies were conducted. The materials and methods used to accomplish the study follow.
Male Sprague Dawley rats (CRL: CD (SD), Charles River Laboratories, Omaha, Nebr.) weighing 300-325 g were used for the experiment.
Rats were handled and habituated to the testing room before starting. […] The degree of catalepsy was measured by gently placing both forepaws over a metal bar (1.1 cm. diameter suspended 8 cm. above the table top). The time in seconds until the rat took both paws off the bar was recorded, with a maximum cut-off of 300 seconds. […] Alternately, any catalepsy trial time that was greater than 15 seconds (up to 300 seconds) was recorded.
Rats were handled and habituated to the testing room before starting. […] The degree of catalepsy was measured by gently placing both forepaws over a metal bar (1.1 cm. diameter suspended 8 cm. above the table top). The time in seconds until the rat took both paws off the bar was recorded, with a maximum cut-off of 300 seconds. […]

O=C(CCCN1CCC(O)(c2ccc(Cl)cc2)CC1)c1ccc(F)cc1 [Haloperidol, 4-(4-[4-chlorophenyl]-4-hydroxy-1-piperidinyl)-1-(4-fluorophenyl)-1-butanone]
dose at which efficacy was observed in DBA2 mouse PPI [1]: 3 mg/kg
Optimal Dose and/or Minimally Effective Dose [2]: 2 to 5 mg/day
Dose of Increased Side Effect Risk ([2]; risk for EPS): ~3 mg

c1ccc(-c2ccc(N3CC4CNCC4C3)nn2)cc1 (centres unmarked) [Compound 2, 2-(6-phenylpyridazin-3-yl)octahydropyrrolo[3,4-c]pyrrole]
effect on risperidone-induced catalepsy ([3]; Compound 2 4.0 mg/kg i.p. + risperidone 2.5 mg/kg i.p., FIG. 11): did not significantly alter cataleptic behavior of risperidone
effect on PPI in combination with sub efficacious risperidone ([1]; Compound 2 0.4-4.0 mg/kg + risperidone 0.1 mg/kg, FIG. 7): attained maximal efficacy; also recorded: potentiates the efficacy of risperidone
effect on PPI, alone ([1]; Compound 2 alone 0.04-4.0 mg/kg, FIG. 6): no effect

O=C(N[C@H]1CN2CCC1CC2)c1ccc(Cl)cc1.O=C(O)/C=C/C(=O)O [Compound 3, N-(3R)-1-azabicyclo[2,2,2]oct-3-yl-4-chlorobenzamide fumarate]
effect on risperidone-induced catalepsy ([3]; Compound 3 3.0 mg/kg i.p. + risperidone 2.5 mg/kg i.p., FIG. 12): did not significantly alter cataleptic behavior of risperidone
effect on PPI in combination with sub efficacious risperidone ([1]; Compound 3 1.0-10.0 mg/kg + risperidone 0.1 mg/kg, FIG. 9, fumarate): attained maximal efficacy; also recorded: boosting the effect of a sub efficacious dose of risperidone
effect on PPI, alone ([1]; Compound 3 alone 1.0-10.0 mg/kg, FIG. 8): no effect

O=C1Cc2cc(CCN3CCN(c4nsc5ccccc45)CC3)c(Cl)cc2N1 [Ziprasidone, 5-[2-[4-(1,2-benzoisothiazol-3-yl)-1-piperazinyl]ethyl]-6-chloro-1,3-dihydro-2H-indol-2-one]
Dose of Increased Side Effect Risk ([2]; EPS risk): >80 mg/day
EPS risk: dose of augmented risk [2]: risk >80 mg/kg/day
Optimal Dose and/or Minimally Effective Dose [2]: 120 mg/day

Cc1nc2n(c(=O)c1CCN1CCC(c3noc4cc(F)ccc34)CC1)CCCC2 [Risperidone, 3-[2-[4-(6-fluoro-1,2-benzisoxazol-3-yl)-1-piperidinyl]ethyl]-6,7,8,9-tetrahydro-2-methyl-4H-pyrido[1,2-a]pyrimidin-4-one]
Dose of Increased Side Effect Risk ([2]; EPS risk): ≧6 mg/day
EPS risk: dose of augmented risk [2]: risk >6 mg/kg/day
Optimal Dose and/or Minimally Effective Dose [2]: 4 to 6 mg/day

Cc1cc2c(s1)Nc1ccccc1N=C2N1CCN(C)CC1 [Olanzapine, 2-methyl-4-(4-methyl-1-piperazinyl)-10H-thieno[2,3-b][1,5]benzodiazepine]
EPS risk: dose of augmented risk [2]: risk >7.5 mg/kg/day
Optimal Dose and/or Minimally Effective Dose [2]: 10 to 20 mg/day

CN1CCN(C2=Nc3cc(Cl)ccc3Nc3ccccc32)CC1 [Clozapine, 8-chloro-11-(4-methyl-1-piperazinyl)-5H-dibenzo[b,e][1,4]diazepine]
dose at which efficacy was observed in DBA2 mouse PPI [1]: 3 mg/kg
Optimal Dose and/or Minimally Effective Dose [2]: 300 to 400 mg/day
Dose of Increased Side Effect Risk ([2]; low risk for seizures): <300 mg/day
Dose of Increased Side Effect Risk ([2]; moderate risk for seizures): 300 to 599 mg/day

c1cc2cc(-c3ccc(O[C@H]4CN5CCC4CC5)nn3)ccc2[nH]1 [Compound 1]
effect on PPI in combination with maximally efficacious haloperidol ([1]; Compound 1 0.04-4.0 mg/kg i.p. 10 minutes prior to maximally efficacious dose of haloperidol, FIG. 5): significant potentiation of effects; also recorded: does not interfere with the efficacy of haloperidol
effect on PPI in combination with sub efficacious risperidone ([1]; Compound 1 (0.04 mg/kg) + risperidone 0.1 mg/kg, FIG. 2): a maximally efficacious response is achieved; also recorded: boosting the effect of a sub efficacious dose of risperidone
effect on PPI in combination with sub efficacious haloperidol ([1]; Compound 1 (0.04-4.0 mg/kg) + haloperidol 0.3 mg/kg, FIG. 4): more efficacious; also recorded: boosting the effect of a sub efficacious dose of haloperidol
effect on PPI, alone ([1]; Compound 1 alone at 0.04 mg/kg, FIG. 2): does not have an effect

O=C1CCc2ccc(OCCCCN3CCN(c4cccc(Cl)c4Cl)CC3)cc2N1 [Arpiprazole]
Optimal Dose and/or Minimally Effective Dose [2]: 15 mg/day
